Test results: patent publication US11807693B2 (priority 2014, dated 2023)
Starred links: 1 amine or outer side, 2 acyl side, 3 side chain; linkers in the order of their positions; H or OH if unused. Non-standard residues stand in square brackets, D forms with d. Residues, ends and D or L forms follow the SMILES beside them. *: point of attachment. Oic = O=C(O)[C@@H]1C[C@@H]2CCCC[C@@H]2N1; Phe(4-Cl) = N[C@@H](Cc1ccc(Cl)cc1)C(=O)O; γGlu = O=C(O)[C@H](CCC(=O)[*:2])N[*:1]; d(β3hF) = N[C@@H](CC(=O)O)Cc1ccccc1; NMeR = CN[C@@H](CCCNC(=N)N)C(=O)O; Tridecanoyl = CCCCCCCCCCCCC(=O)*; hArg = N=C(N)NCCCC[C@H](N)C(=O)O; Cha = N[C@@H](CC1CCCCC1)C(=O)O; αMeL = CC(C)C[C@](C)(N)C(=O)O; αMeP = C[C@@]1(C(=O)O)CCCN1; β3hV = CC(C)[C@H](N)CC(=O)O; β3hP = O=C(O)C[C@@H]1CCCN1; Nle = CCCC[C@H](N)C(=O)O; Orn = NCCC[C@H](N)C(=O)O; Hexanoyl = CCCCCC(=O)*; AEEA = NCCOCCOCC(=O)O; Aib = CC(C)(N)C(=O)O

Assays:
Format in all cases: in vitro ADME
[1] = In vitro stability in rat plasma
Procedure, shortened: (§1)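 Stability was followed for 4 hr at 37° C. after spiking peptides (5 μM final) into rat plasma and tissue homogenates. Methanol quench with internal standard preceded high resolution LC-MS.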

[2] = In vitro stability in rat kidney homogenate; conditions: rat, tissue homogenate
Experimental: Apelin peptides were spiked into rat plasma, liver homogenate, and kidney homogenate, which were obtained from commercial sources, to a final concentration of 5 μM. The samples were then incubated at 37° C. over a period of 4 hr. […] In a typical experiment, an aliquot of 100 μL of sample was taken from the incubation vial, followed by addition of 300 μL of MeOH containing internal standard. The quenched sample was centrifuged at 5500 g for 15 min after 15 min vortex in room temperature. The supernatant was then analyzed by high resolution LC-MS. […] In vitro plasma, […], and kidney stability results are shown below in Table 14.

[3] = In vitro stability in rat liver homogenate; conditions: tissue homogenate
Procedure, shortened: as §1

| remaining at 4 h, 5 μM [1] | remaining at 4 h, 5 μM [2] | remaining at 4 h, 5 μM [3] | Compound |
| --- | --- | --- | --- |
| > 90% | 15% | 29% | CCCCCCCCCCCCC(=O)N[C@@H](CCC(=O)NCCOCCOCC(=O)NCCOCCOCC(=O)N[C@H](CCC(N)=O)C(=O)N[C@@H](CCCNC(=N)N)C(=O)N1CCC[C@H]1CC(=O)N(C)[C@@H](CCCNC(=N)N)C(=O)N[C@@](C)(CC(C)C)C(=O)N[C@@H](CO)C(=O)N[C@@H](Cc1c[nH]cn1)C(=O)N[C@@H](CCCCN)C(=O)NCC(=O)N1[C@H](C(=O)N[C@@H](CCCC)C(=O)N2CCC[C@@]2(C)C(=O)N[C@@H](Cc2ccc(Cl)cc2)C(=O)O)C[C@@H]2CCCC[C@@H]21)C(=O)O [compound 553] ({Tridecanoyl-γGlu-AEEA-AEEA}-[dQ]R[β3hP][NMeR][αMeL]SHKG[Oic][Nle][αMeP][Phe(4-Cl)]-OH) |
| 73% | 1% | 4% | CCCCCCCCCCCCC(=O)N[C@@H](CCC(=O)NCCOCCOCC(=O)NCCOCCOCC(=O)N[C@@H](CCC(N)=O)C(=O)N[C@@H](CCCNC(=N)N)C(=O)N1CCC[C@H]1C(=O)N(C)[C@@H](CCCNC(=N)N)C(=O)N[C@@](C)(CC(C)C)C(=O)N[C@@H](CO)C(=O)N[C@@H](Cc1c[nH]cn1)C(=O)N[C@@H](CCCCN)C(=O)NCC(=O)N1CCC[C@@]1(C)C(=O)N[C@@H](CCCC)C(=O)N1CCC[C@H]1C(=O)N[C@@H](Cc1ccc(Cl)cc1)C(=O)O)C(=O)O [compound 387] |
| 93% | 2% | 13% | CCCCCCCCCCCCC(=O)N[C@@H](CCC(=O)NCCOCCOCC(=O)NCCOCCOCC(=O)N[C@@H](CCCNC(=N)N)C(=O)N[C@@H](CCC(N)=O)C(=O)N[C@@H](CCCC)C(=O)N1CCC[C@H]1C(=O)N[C@@H](CCCCNC(=N)N)C(=O)N[C@@H](CC1CCCCC1)C(=O)N[C@@H](CO)C(=O)N[C@@H](Cc1c[nH]cn1)C(=O)N[C@@H](CCCCN)C(=O)NCC(=O)N1[C@H](C(=O)N[C@@H](CCCC)C(=O)N2CCC[C@H]2C(=O)N[C@@H](Cc2ccc(Cl)cc2)C(=O)O)C[C@@H]2CCCC[C@@H]21)C(=O)O [compound 339] ({Tridecanoyl-γGlu-AEEA-AEEA}-RQ[Nle]P[hArg][Cha]SHKG[Oic][Nle]P[Phe(4-Cl)]-OH) |
| 88% | 0% | 6% | CCCCCCCCCCCCC(=O)N[C@@H](CCC(=O)NCCOCCOCC(=O)NCCOCCOCC(=O)N[C@@H](CCCNC(=N)N)C(=O)N[C@@H](CCC(N)=O)C(=O)N[C@@H](CCCNC(=N)N)C(=O)N1CCC[C@H]1C(=O)N[C@@H](CCCC)C(=O)N[C@@H](CC1CCCCC1)C(=O)N[C@@H](C)C(=O)N[C@@H](Cc1c[nH]cn1)C(=O)N[C@@H](CCCCN)C(=O)NCC(=O)N1[C@H](C(=O)N[C@@H](CCCC)C(=O)N2CCC[C@H]2C(=O)N[C@@H](Cc2ccc(Cl)cc2)C(=O)O)C[C@@H]2CCCC[C@@H]21)C(=O)O [compound 344] ({Tridecanoyl-γGlu-AEEA-AEEA}-RQRP[Nle][Cha]AHKG[Oic][Nle]P[Phe(4-Cl)]-OH) |
| > 90% | 4% | 11% | CCCCCCCCCCCCC(=O)N[C@@H](CCC(=O)NCCOCCOCC(=O)NCCOCCOCC(=O)N[C@H](CCC(N)=O)C(=O)N[C@@H](CCCNC(=N)N)C(=O)N1CCCC1(C)C(=O)N[C@@H](CCCCNC(=N)N)C(=O)NC(CC(=O)N[C@@H](CO)C(=O)N[C@@H](Cc1c[nH]cn1)C(=O)N[C@@H](CCCCN)C(=O)NCC(=O)N1CCCC1(C)C(=O)N[C@@H](CCCC)C(=O)N1CCCC1(C)C(=O)N[C@@H](Cc1ccc(Cl)cc1)C(=O)O)C(C)C)C(=O)O (stereo partly drawn) [compound 504] |
| > 90% | 23% | > 90% | CCCCCCCCCCCCC(=O)N[C@@H](CCC(=O)NCCOCCOCC(=O)NCCOCCOCC(=O)N[C@H](CCC(N)=O)C(=O)N[C@@H](CCCNC(=N)N)C(=O)N1CCC[C@H]1C(=O)N(C)[C@@H](CCCNC(=N)N)C(=O)N[C@@H](CC1CCCCC1)C(=O)N[C@@H](CO)C(=O)N[C@@H](Cc1c[nH]cn1)C(=O)N[C@@H](CCCCN)C(=O)NCC(=O)N1CCC[C@@]1(C)C(=O)N[C@@H](CCCC)C(=O)NC(C)(C)C(=O)N[C@@H](Cc1ccc(Cl)cc1)C(=O)O)C(=O)O [compound 498] ({Tridecanoyl-γGlu-AEEA-AEEA}-[dQ]RP[NMeR][Cha]SHKG[αMeP][Nle][Aib][Phe(4-Cl)]-OH) |
| > 90% | < 1% | 4% | CCCCCC(=O)N[C@@H](CCC(=O)NCCOCCOCC(=O)NCCOCCOCC(=O)N[C@@H](CCC(N)=O)C(=O)N[C@@H](CCCNC(=N)N)C(=O)N1CCC[C@H]1C(=O)N(C)[C@@H](CCCNC(=N)N)C(=O)N[C@@H](CC1CCCCC1)C(=O)N[C@@H](CO)C(=O)N[C@@H](Cc1c[nH]cn1)C(=O)N[C@@H](CCCCN)C(=O)NCC(=O)N1[C@H](C(=O)N[C@@H](CCCC)C(=O)NC(C)(C)C(=O)N[C@@H](Cc2ccc(Cl)cc2)C(=O)O)C[C@@H]2CCCC[C@@H]21)C(=O)O [compound 562] ({Hexanoyl-γGlu-AEEA-AEEA}-QRP[NMeR][Cha]SHKG[Oic][Nle][Aib][Phe(4-Cl)]-OH) |
| 86% | < 1% | 3% | CCCCCCCCCCCCCCCCC(=O)N[C@@H](CCC(=O)NCCOCCOCC(=O)NCCOCCOCC(=O)N[C@@H](CCC(N)=O)C(=O)N[C@@H](CCCNC(=N)N)C(=O)N1CCC[C@H]1C(=O)N(C)[C@@H](CCCNC(=N)N)C(=O)N[C@@H](CC(C)C)C(=O)N[C@@H](CO)C(=O)N[C@@H](Cc1c[nH]cn1)C(=O)N[C@@H](CCCCN)C(=O)NCC(=O)N1CCC[C@H]1C(=O)N[C@@H](CCCC)C(=O)N1CCC[C@H]1C(=O)N[C@@H](Cc1ccc(Cl)cc1)C(=O)O)C(=O)O [compound 496] |
| 2% | 2% | 5% | CCCCCCCCCCCCC(=O)N[C@@H](CCC(=O)NCCOCCOCC(=O)NCCOCCOCC(=O)N[C@@H](CCC(N)=O)C(=O)N[C@@H](CCCNC(=N)N)C(=O)N1CCC[C@H]1C(=O)N(C)[C@@H](CCCNC(=N)N)C(=O)N[C@H](CC(=O)N[C@@H](CO)C(=O)N[C@@H](Cc1c[nH]cn1)C(=O)N[C@@H](CCCCN)C(=O)NCC(=O)N1[C@H](C(=O)N[C@@H](CCCC)C(=O)N2CCC[C@H]2C(=O)N[C@@H](Cc2ccc(Cl)cc2)C(=O)O)C[C@@H]2CCCC[C@@H]21)C(C)C)C(=O)O [compound 391] ({Tridecanoyl-γGlu-AEEA-AEEA}-QRP[NMeR][β3hV]SHKG[Oic][Nle]P[Phe(4-Cl)]-OH) |
| 87% | 0% | 2% | CCCCCCCCCCCCC(=O)N[C@@H](CCC(=O)NCCOCCOCC(=O)NCCOCCOCC(=O)N[C@@H](CCC(N)=O)C(=O)N[C@@H](CCCNC(=N)N)C(=O)N1CCC[C@H]1C(=O)N[C@@H](CCCCNC(=N)N)C(=O)N[C@@H](CC(C)C)C(=O)N[C@@H](CO)C(=O)N[C@@H](Cc1c[nH]cn1)C(=O)N[C@@H](CCCCN)C(=O)NCC(=O)N1[C@H](C(=O)N[C@@H](CCCC)C(=O)N2CCC[C@H]2C(=O)N[C@@H](Cc2ccc(Cl)cc2)C(=O)O)C[C@@H]2CCCC[C@@H]21)C(=O)O [compound 356] ({Tridecanoyl-γGlu-AEEA-AEEA}-QRP[hArg]LSHKG[Oic][Nle]P[Phe(4-Cl)]-OH) |
| > 90% | 2% | 12% | CCCCCCCCCCCCC(=O)N[C@@H](CCC(=O)NCCOCCOCC(=O)NCCOCCOCC(=O)N[C@H](CC(=O)N[C@@H](CCCNC(=N)N)C(=O)N1CCC[C@H]1C(=O)N(C)[C@@H](CCCNC(=N)N)C(=O)N[C@@H](CC1CCCCC1)C(=O)N[C@@H](CO)C(=O)N[C@@H](Cc1c[nH]cn1)C(=O)N[C@@H](CCCCN)C(=O)NCC(=O)N1[C@H](C(=O)N[C@@H](CCCC)C(=O)N2CCC[C@H]2C(=O)N[C@@H](Cc2ccc(Cl)cc2)C(=O)O)C[C@@H]2CCCC[C@@H]21)C(C)C)C(=O)O [compound 393] ({Tridecanoyl-γGlu-AEEA-AEEA}-[β3hV]RP[NMeR][Cha]SHKG[Oic][Nle]P[Phe(4-Cl)]-OH) |
| 97% | 1% | 2% | CCCCCCCCCCCCC(=O)N[C@@H](CCC(=O)NCCOCCOCC(=O)NCCOCCOCC(=O)N[C@@H](CCC(N)=O)C(=O)N[C@@H](CCCNC(=N)N)C(=O)N1CCC[C@H]1C(=O)N(C)[C@@H](CCCNC(=N)N)C(=O)N[C@@H](CC1CCCCC1)C(=O)N[C@@H](CO)C(=O)N[C@@H](Cc1c[nH]cn1)C(=O)N[C@@H](CCCCN)C(=O)NCC(=O)N1[C@H](C(=O)N[C@@H](CCCC)C(=O)N2CCC[C@H]2C(=O)N[C@@H](CC(=O)O)Cc2ccccc2)C[C@@H]2CCCC[C@@H]21)C(=O)O [compound 380] ({Tridecanoyl-γGlu-AEEA-AEEA}-QRP[NMeR][Cha]SHKG[Oic][Nle]P[d(β3hF)]-OH) |
| > 90% | 13.8% | 66.8% | CCCCCCCCCCCCC(=O)N[C@@H](CCC(=O)NCCOCCOCC(=O)NCCOCCOCC(=O)N[C@@H](CCCN)C(=O)N[C@@H](Cc1ccccc1)C(=O)N[C@@H](CCCCNC(=N)N)C(=O)N[C@@H](CCCCNC(=N)N)C(=O)N[C@H](CC(=O)N[C@@H](CCCCNC(=N)N)C(=O)N1CCC[C@H]1C(=O)N[C@@H](CCCCNC(=N)N)C(=O)N[C@@H](CC1CCCCC1)C(=O)N[C@@H](CO)C(=O)N[C@@H](Cc1c[nH]cn1)C(=O)N[C@@H](CCCCN)C(=O)NCC(=O)N1[C@H](C(=O)N[C@@H](CCCC)C(=O)N2CCC[C@H]2C(=O)N[C@@H](Cc2ccc(Cl)cc2)C(=O)O)C[C@@H]2CCCC[C@@H]21)C(C)C)C(=O)O [compound 307] ({Tridecanoyl-γGlu-AEEA-AEEA}-[Orn]F[hArg][hArg][β3hV][hArg]P[hArg][Cha]SHKG[Oic][Nle]P[Phe(4-Cl)]-OH) |
